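96-well plates; 48 h exposure; 5 concentrations. Endpoints by linear interpolation between flanking doses. Not reached: highest tested concentration assigned. GI50: concentration for 50% inhibition of growth.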 Activity calls are given as the source filed them. Cut-off read from the data, not from the text of the source: active = GI50 up to about 1.1 µM and inactive = higher.
Tests used:
Assay in all cases: NCI anticancer screen, dose series, 48 h
HCT-15 = tested on: HCT-15
PC-3 = tested on: PC-3
T47D = tested on: T47D
SR = tested on: SR
SF-268 = tested on: SF-268
NCI/ADR-RES = tested on: NCI/ADR-RES
SK-MEL-2 = tested on: SK-MEL-2
SW-620 = tested on: SW-620
OVCAR-3 = tested on: OVCAR-3
SK-MEL-5 = tested on: SK-MEL-5
UACC-62 = tested on: UACC-62
SNB-75 = tested on: SNB-75
OVCAR-4 = tested on: OVCAR-4
OVCAR-8 = tested on: OVCAR-8
COLO 205 = tested on: COLO 205
HOP-62 = tested on: HOP-62
ACHN = tested on: ACHN
A549 = tested on: A549
LOX IMVI = tested on: LOX IMVI
MDA-N = tested on: MDA-N
IGROV-1 = tested on: IGROV-1
SF-295 = tested on: SF-295
MDA-MB-231 = tested on: MDA-MB-231
Hs-578T = tested on: Hs-578T
MOLT-4 = tested on: MOLT-4
HOP-92 = tested on: HOP-92
786-0 = tested on: 786-0
M14 = tested on: M14
NCI-H460 = tested on: NCI-H460
UACC-257 = tested on: UACC-257
SK-OV-3 = tested on: SK-OV-3
HCT-116 = tested on: HCT-116
SN12C = tested on: SN12C
NCI-H522 = tested on: NCI-H522
DU-145 = tested on: DU-145
Malme-3M = tested on: Malme-3M
HT-29 = tested on: HT-29
EKVX = tested on: EKVX
OVCAR-5 = tested on: OVCAR-5
RPMI-8226 = tested on: RPMI-8226
CAKI-1 = tested on: CAKI-1
A498 = tested on: A498
NCI-H23 = tested on: NCI-H23
SNB-19 = tested on: SNB-19
RXF 393 = tested on: RXF 393
UO-31 = tested on: UO-31
NCI-H226 = tested on: NCI-H226
MCF7 = tested on: MCF7
K562 = tested on: K562
HCC 2998 = tested on: HCC 2998
HL-60 = tested on: HL-60
SF-539 = tested on: SF-539
KM12 = tested on: KM12
CCRF-CEM = tested on: CCRF-CEM
TK-10 = tested on: TK-10
SK-MEL-28 = tested on: SK-MEL-28
MDA-MB-435 = tested on: MDA-MB-435
U-251 = tested on: U-251

In the case of CC1(C)OC2C(COC(c3ccccc3)(c3ccccc3)c3ccccc3)OC(c3c[nH]c4c(N)ncnc34)C2O1 (configuration not stated), the GI50 (HCT-15) is reported as 4.06 µM, the GI50 (PC-3) is reported as 1.86 µM (inactive) and the GI50 (T47D) is reported as 3.92 µM (inactive). For the same molecule, the GI50 (SR) was 4.06 µM (inactive), the GI50 (SF-268) was 5.82 µM (inactive) and the GI50 (NCI/ADR-RES) was 9.48 µM (inactive). The GI50 (SK-MEL-2) was 4.89 µM (inactive), the GI50 (SW-620) was 3.25 µM (inactive) and the GI50 (OVCAR-3) was 3.13 µM (inactive). For the same molecule, the GI50 (SK-MEL-5) was 1.58 µM (inactive), the GI50 (UACC-62) was 1.31 µM (inactive) and the GI50 (SNB-75) was 7.48 µM (inactive). For the same molecule, the GI50 (OVCAR-4) was 7.78 µM (inactive), the GI50 (OVCAR-8) was 5.77 µM (inactive) and the GI50 (COLO 205) was 10.7 µM (inactive). For the same molecule, the GI50 (HOP-62) was 4.86 µM (inactive), the GI50 (ACHN) was 2.67 µM (inactive) and the GI50 (A549) was 3.18 µM (inactive). The GI50 (LOX IMVI) was 1.6 µM (inactive), the GI50 (MDA-N) was 3.16 µM (inactive) and the GI50 (IGROV-1) was 4.49 µM (inactive). The GI50 (SF-295) was 3 µM (inactive), the GI50 (MDA-MB-231) was 13.1 µM (inactive) and the GI50 (Hs-578T) was 5.73 µM (inactive). For the same molecule, the GI50 (MOLT-4) was 1.89 µM (inactive), the GI50 (HOP-92) was 5.62 µM (inactive) and the GI50 (786-0) was 1.87 µM (inactive). The GI50 (M14) was 2.76 µM (inactive), the GI50 (NCI-H460) was 3.33 µM (inactive) and the GI50 (UACC-257) was 4.68 µM (inactive). For the same molecule, the GI50 (SK-OV-3) was 4.86 µM (inactive), the GI50 (HCT-116) was 4.67 µM (inactive) and the GI50 (SN12C) was 3.92 µM (inactive). The GI50 (NCI-H522) was 4.53 µM (inactive), the GI50 (DU-145) was 5.6 µM (inactive) and the GI50 (Malme-3M) was 4.92 µM (inactive). For the same molecule, the GI50 (HT-29) was 2.56 µM (inactive) and the GI50 (EKVX) was 8.61 µM (inactive).

O=S(=O)(c1ccc(/N=C2\NC(c3ccc(O)cc3)(c3ccccc3O)c3ccccc32)cc1)c1ccc(/N=C2/NC(c3ccc(O)cc3)(c3ccccc3O)c3ccccc32)cc1 (configuration not stated) was tested, and the GI50 (OVCAR-5) was 9.27 µM (inactive), the GI50 (HCT-15) was 5.79 µM and the GI50 (RPMI-8226) was 5.22 µM (inactive). For the same molecule, the GI50 (PC-3) was 5.05 µM (inactive), the GI50 (T47D) was 2.25 µM (inactive) and the GI50 (SR) was 5.38 µM (inactive). For the same molecule, the GI50 (CAKI-1) was 12.9 µM (inactive), the GI50 (SF-268) was 3.38 µM (inactive) and the GI50 (A498) was 11.9 µM (inactive). The GI50 (NCI/ADR-RES) was 24.7 µM (inactive), the GI50 (NCI-H23) was 2.62 µM (inactive) and the GI50 (SNB-19) was 5.08 µM (inactive). For the same molecule, the GI50 (SK-MEL-2) was 3.73 µM (inactive), the GI50 (OVCAR-3) was 4.74 µM (inactive) and the GI50 (RXF 393) was 4.02 µM (inactive). The GI50 (SK-MEL-5) was 4.46 µM (inactive), the GI50 (UACC-62) was 3.85 µM (inactive) and the GI50 (SNB-75) was 3.32 µM (inactive). For the same molecule, the GI50 (UO-31) was 21.5 µM (inactive), the GI50 (OVCAR-4) was 2.87 µM (inactive) and the GI50 (OVCAR-8) was 3.33 µM (inactive). For the same molecule, the GI50 (COLO 205) was 3.56 µM (inactive), the GI50 (HOP-62) was 5.28 µM (inactive) and the GI50 (NCI-H226) was 2.5 µM (inactive). The GI50 (MCF7) was 3.95 µM (inactive), the GI50 (ACHN) was 20.2 µM (inactive) and the GI50 (K562) was 3.52 µM (inactive). For the same molecule, the GI50 (A549) was 6.15 µM (inactive), the GI50 (LOX IMVI) was 2.96 µM (inactive) and the GI50 (MDA-N) was 2.99 µM (inactive). For the same molecule, the GI50 (IGROV-1) was 2.68 µM (inactive), the GI50 (SF-295) was 5.28 µM (inactive) and the GI50 (HCC 2998) was 4.63 µM (inactive). The GI50 (HL-60) was 1.02 µM (active), the GI50 (SF-539) was 2.75 µM (inactive) and the GI50 (Hs-578T) was 3.4 µM (inactive). For the same molecule, the GI50 (MOLT-4) was 4.04 µM (inactive), the GI50 (KM12) was 2.48 µM (inactive) and the GI50 (CCRF-CEM) was 3.37 µM (inactive). The GI50 (HOP-92) was 3.91 µM (inactive), the GI50 (786-0) was 3.02 µM (inactive) and the GI50 (M14) was 3.87 µM (inactive). For the same molecule, the GI50 (NCI-H460) was 3.7 µM (inactive), the GI50 (TK-10) was 13.8 µM (inactive) and the GI50 (UACC-257) was 5.02 µM (inactive). The GI50 (SK-OV-3) was 9.82 µM (inactive), the GI50 (HCT-116) was 2.23 µM (inactive) and the GI50 (SN12C) was 3.78 µM (inactive). For the same molecule, the GI50 (NCI-H522) was 2.02 µM (inactive), the GI50 (DU-145) was 4.65 µM (inactive) and the GI50 (Malme-3M) was 2.32 µM (inactive). For the same molecule, the GI50 (HT-29) was 3.09 µM (inactive) and the GI50 (EKVX) was 5.96 µM (inactive).

In the case of CCN1CCC(O)(c2ccc(O)cc2)C(C(=O)c2ccc(O)cc2)C1 (configuration not stated), the GI50 (OVCAR-5) is reported as 21.1 µM (inactive), the GI50 (HCT-15) is reported as 17.5 µM and the GI50 (RPMI-8226) is reported as 3.21 µM (inactive). For the same molecule, the GI50 (PC-3) was > 10 µM (inactive), the GI50 (T47D) was 8.77 µM (inactive) and the GI50 (SR) was 16.5 µM (inactive). The GI50 (SF-268) was 39.2 µM (inactive), the GI50 (A498) was > 10 µM (inactive) and the GI50 (SK-MEL-28) was 17 µM (inactive). For the same molecule, the GI50 (NCI/ADR-RES) was 26.3 µM (inactive), the GI50 (NCI-H23) was 20.3 µM (inactive) and the GI50 (SNB-19) was > 100 µM (inactive). The GI50 (SW-620) was 2.95 µM (inactive), the GI50 (OVCAR-3) was 18.2 µM (inactive) and the GI50 (RXF 393) was 16.6 µM (inactive). For the same molecule, the GI50 (SK-MEL-5) was 10.8 µM (inactive), the GI50 (UACC-62) was 16.4 µM (inactive) and the GI50 (MDA-MB-435) was 17.3 µM (inactive). For the same molecule, the GI50 (SNB-75) was 11.2 µM (inactive), the GI50 (UO-31) was 21.6 µM (inactive) and the GI50 (OVCAR-4) was 27.7 µM (inactive). For the same molecule, the GI50 (OVCAR-8) was 40.6 µM (inactive), the GI50 (COLO 205) was 4.45 µM (inactive) and the GI50 (HOP-62) was > 100 µM (inactive). The GI50 (NCI-H226) was 29.3 µM (inactive), the GI50 (MCF7) was 3.18 µM (inactive) and the GI50 (ACHN) was 19.8 µM (inactive). For the same molecule, the GI50 (K562) was 12 µM (inactive), the GI50 (LOX IMVI) was 12.5 µM (inactive) and the GI50 (IGROV-1) was 21.6 µM (inactive). The GI50 (SF-295) was > 100 µM (inactive), the GI50 (HCC 2998) was > 10 µM (inactive) and the GI50 (MDA-MB-231) was 16.3 µM (inactive). For the same molecule, the GI50 (HL-60) was 31.7 µM (inactive), the GI50 (Hs-578T) was 13.3 µM (inactive) and the GI50 (MOLT-4) was 21.9 µM (inactive). For the same molecule, the GI50 (U-251) was > 100 µM (inactive), the GI50 (KM12) was 22.2 µM (inactive) and the GI50 (CCRF-CEM) was 11.5 µM (inactive). For the same molecule, the GI50 (HOP-92) was 19.7 µM (inactive), the GI50 (M14) was 19.5 µM (inactive) and the GI50 (NCI-H460) was > 100 µM (inactive). The GI50 (TK-10) was 17.3 µM (inactive), the GI50 (UACC-257) was 13.7 µM (inactive) and the GI50 (SK-OV-3) was > 100 µM (inactive). The GI50 (HCT-116) was 20.3 µM (inactive), the GI50 (SN12C) was 22.3 µM (inactive) and the GI50 (DU-145) was 27.6 µM (inactive). For the same molecule, the GI50 (Malme-3M) was 20.5 µM (inactive), the GI50 (HT-29) was 25.8 µM (inactive) and the GI50 (EKVX) was 28.2 µM (inactive).
